Results taken from patent publication US20100119599A1 (ARCHER PHARMACEUTICALS, INC., priority 2006, published 2010).
Like-named read-outs stand apart in the source and are kept apart here.

Legend:
Aβ1-42 = assay: Measurement of Aβ1-42 in culture medium of 7W WT APP751 CHO cells by ELISA; assay type: cell-based, Chinese hamster; details: for activity at 5 µM: Cricetulus griseus, 5 μM test compound, CHO cells stably transfected with human APP751, culture medium, ELISA, control DMSO; for Aβ1-42 (% of control): CHO cells that overexpress APP751, zero = below the detection limit of the assay;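 on Aβ1-42 (% of control): 5 µM test compound but RI-coded compounds at 10 µM for 24 hours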
Aβ1-40 = assay: Measurement of Aβ1-40 in culture medium of 7W WT APP751 CHO cells by ELISA; assay type: cell-based, Chinese hamster; details: for activity at 5 µM: Cricetulus griseus, 5 μM test compound, CHO cells stably transfected with human APP751, culture medium, ELISA, control DMSO; for Aβ1-40 (% of control): CHO cells that overexpress APP751, zero = below the detection limit of the assay;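 on all read-outs here: 5 µM test compound but RI-coded compounds at 10 µM for 24 hours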
[1] = Table 1, 0 = no detectable amount, read-out: Aβ1-42 (% of control)
[2] = Table 1, 0 = no detectable amount
[3] = Table 3, read-out: Aβ-42 (% of control)

Row | Structure (SMILES) | activity at 5 µM (Aβ1-42; [1]) | activity at 5 µM (Aβ1-40; [2]) | Aβ1-42 (% of control) (Aβ1-42) | Aβ1-40 (% of control) (Aβ1-40) | also measured
1 | CCCOC(=O)C1=C(C)NC2=C(C(=O)CCC2)C1c1ccc(Br)cc1 (centres unmarked) [ST017259, propyl 4-(4-bromophenyl)-2-methyl-5-oxo-1,4,6,7,8-pentahydroquinoline-3-carboxylate] | 87% | 65.5% |  |  | 
2 | Cc1c(Cl)cccc1NC(=O)CSC1=C(C#N)C(c2cccs2)C2=C(CC(C)(C)CC2=O)N1 (centres unmarked) [ST051161, N-(3-chloro-2-methylphenyl)-2-(3-cyano-7,7-dimethyl-5-oxo-4-(2-thienyl)(2-1,4,6,7,8-pentahydroquinolylthio))acetamide] | 25.4% | 13% |  |  | 
3 | CC1=C(C(=O)OCc2ccccc2)C(c2cc3c(cc2[NH+]([O-])O)OCO3)C2=C(CC(C)(C)CC2=O)N1 (centres unmarked) [ST013052, phenylmethyl 2,7,7-trimethyl-4-(6-nitro(2H-benzo[d]1,3-dioxolan-5-yl))-5-oxo-1,4,6,7,8-pentahydroquinoline-3-carboxylate] | 72.4% | 68.8% |  |  | 
4 | CC1=C(C(=O)Nc2ccccc2)C(c2ccccc2)C(C#N)=C(SCC(=O)Nc2ccccc2C)N1 (centres unmarked) [RI_16] |  |  | 105 % of control | 64.2 % of control | 
5 | CC1=C(C(=O)OC(C)(C)C)C(c2ccc(Cl)cc2)C(C#N)=C(SCC(=O)Nc2ccc(C)cc2)N1 (centres unmarked) [ST051142, tert-butyl 4-(4-chlorophenyl)-5-cyano-2-methyl-6-{[N-(4-methylphenyl)carbamoyl]methylthio}-1,4-dihydropyridine-3-carboxylate] |  |  | 46.06 % of control | 94.85 % of control | 
6 | Cc1ccccc1/C=c1/sc2n(c1=O)C(N)=C(C#N)C(c1ccccc1C)C=2C#N (centres unmarked) [ST003359, 5-amino-7-(2-methylphenyl)-2-[(2-methylphenyl)methylene]-3-oxo-4,7-dihydro-1,3-thiazolidino[3,2-a]pyridine-6,8-dicarbonitrile] |  |  | 98.22 % of control | 56.16 % of control | 
7 | N#CC1=C(N)n2c(s/c(=C/c3cccc(Br)c3)c2=O)=C(C#N)C1c1cccc(Br)c1 (centres unmarked) [ST024841, 5-amino-7-(3-bromophenyl)-2-[(3-bromophenyl)methylene]-3-oxo-4,7-dihydro-1,3-thiazolidino[3,2-a]pyridine-6,8-dicarbonitrile] |  |  | 95.58 % of control | 61.78 % of control | 
8 | CCCOC(=O)C1=C(C)NC2=C(C(=O)CC(c3ccc(Cl)cc3)C2)C1c1ccc(Cl)c(Cl)c1 (centres unmarked) [ST017183, propyl 4-(3,4-dichlorophenyl)-7-(4-chlorophenyl)-2-methyl-5-oxo-1,4,6,7,8-pentahydroquinoline-3-carboxylate] | 67.9% | 50.1% |  |  | 
9 | CCc1cccc(NC(=O)CSC2=C(C#N)C(c3ccc(-c4ccco4)s3)C(C(=O)Nc3ccccc3)=C(C)N2)c1 (centres unmarked) [RI_85] |  |  | 46.7 % of control | 98.5 % of control | 
10 | COC(=O)C1=C(C)NC2=C(C(=O)CC(C)(C)C2)C1c1ccc(OCc2cccc(C(F)(F)F)c2)c(OC)c1 (centres unmarked) [ST028607, methyl 4-(3-methoxy-4-{[3-(trifluoromethyl)phenyl]methoxy}phenyl)-2,7,7-trimethyl-5-oxo-1,4,6,7,8-pentahydroquinoline-3-carboxylate] | 63.3% | 23.8% |  |  | 
11 | COc1cc(/C=c2\sc3n(c2=O)C(N)=C(C#N)C(c2cc(OC)c(OC)c(OC)c2)C=3C#N)cc(OC)c1OC (centres unmarked) [ST025031, 5-amino-3-oxo-7-(3,4,5-trimethoxyphenyl)-2-[(3,4,5-trimethoxyphenyl)methylene]-4,7-dihydro-1,3-thiazolidino[3,2-a]pyridine-6,8-dicarbonitrile] |  |  | 77.59 % of control | 55.17 % of control | 
12 | CCCCCCNC(=O)CSC1=C(C#N)C(c2cccs2)C(C(=O)Nc2ccccc2)=C(C)N1 (centres unmarked) [RI_26] |  |  | 26.7 % of control | 37.6 % of control | 
13 | N[C@@H](Cn1ccc(=O)c(O)c1)C(=O)O [ST056312, (2S)-2-amino-3-(3-hydroxy-4-oxohydropyridyl)propanoic acid] |  |  |  |  | activity at 5 µM (Aβ1-42; [3]): 37.1%; activity at 5 µM (Aβ1-40; Table 3): 70.7%
14 | COCCOC(=O)C1=C(C)NC2=C(C(=O)CC(C)(C)C2)C1c1cc(OC)c(OC)c(OC)c1 (centres unmarked) [ST013356, 2-methoxyethyl 2,7,7-trimethyl-5-oxo-4-(3,4,5-trimethoxyphenyl)-1,4,6,7,8-pentahydroquinoline-3-carboxylate] | 82.5% | 62.7% |  |  | 
15 | CCSCCOC(=O)C1=C(C)NC2=C(C(=O)CC(C)(C)C2)C1c1ccccc1C (centres unmarked) [ST052342, 2-ethylthioethyl 2,7,7-trimethyl-4-(2-methylphenyl)-5-oxo-1,4,6,7,8-pentahydroquinoline-3-carboxylate] | 9.88% | 13.7% |  |  | 
16 | CC1=C(C(=O)OC2CCCC2)C(c2ccc(Cl)cc2)C2=C(CC(C)(C)CC2=O)N1 (centres unmarked) [ST013081, cyclopentyl 4-(4-chlorophenyl)-2,7,7-trimethyl-5-oxo-1,4,6,7,8-pentahydroquinoline-3-carboxylate] | 0.188% | 0% |  |  | 

Row | Structure (SMILES) | activity at 5 µM (Aβ1-42; [1]) | activity at 5 µM (Aβ1-40; [2]) | Aβ1-42 (% of control) (Aβ1-42) | Aβ1-40 (% of control) (Aβ1-40) | also measured
17 | CC1=C(C(=O)Nc2ccccc2)C(c2ccsc2)C(C#N)=C(SCC(=O)Nc2cccc(C)c2)N1 (centres unmarked) [RI_39] |  |  | 72 % of control | 72 % of control | 
18 | CC1=C(C(=O)OCC(C)C)C(c2ccc(Cl)cc2)C2=C(CC(c3ccc(Cl)cc3)CC2=O)N1 (centres unmarked) [ST017070, 2-methylpropyl 4,7-bis(4-chlorophenyl)-2-methyl-5-oxo-1,4,6,7,8-pentahydroquinoline-3-carboxylate] | 89.1% | 55.4% |  |  | 
19 | CSc1ccc(C2C(C(=O)OCCOc3ccccc3)=C(C)NC3=C2C(=O)CCC3)cc1 (centres unmarked) [ST015072, 2-phenoxyethyl 2-methyl-4-(4-methylthiophenyl)-5-oxo-1,4,6,7,8-pentahydroquinoline-3-carboxylate] | 59.4% | 19.3% |  |  | 
20 | CC1=C(C(=O)Nc2ccccc2)C(c2cccs2)C(C#N)=C(SCC(=O)Nc2ccc(C)c(C)c2)N1 (centres unmarked) [ST041706, N-(3,4-dimethylphenyl)-2-[3-cyano-6-methyl-5-(N-phenylcarbamoyl)-4-(2-thienyl) (2-1,4-dihydropyridylthio)]acetamide] |  |  | 50.13 % of control | 68.73 % of control | 
21 | COCCOC(=O)C1=C(C)NC2=C(C(=O)CCC2)C1c1ccccc1 (centres unmarked) [ST013253, 2-methoxyethyl 2-methyl-5-oxo-4-phenyl-1,4,6,7,8-pentahydroquinoline-3-carboxylate] | 85.8% | 50.2% |  |  | 
22 | COCCOC(=O)C1=C(C)NC2=C(C(=O)CC(c3ccc(Cl)cc3)C2)C1c1ccc(Br)cc1 (centres unmarked) [ST016960, 2-methoxyethyl 4-(4-bromophenyl)-7-(4-chlorophenyl)-2-methyl-5-oxo-1,4,6,7,8-pentahydroquinoline-3-carboxylate] | 76.4% | 51.5% |  |  | 
23 | CC1=C(C(=O)OCCOc2ccccc2)C(c2ccc(C)cc2)C2=C(CC(C)(C)CC2=O)N1 (centres unmarked) [ST015095, 2-phenoxyethyl 2,7,7-trimethyl-4-(4-methylphenyl)-5-oxo-1,4,6,7,8-pentahydroquinoline-3-carboxylate] | 0% | 59.7% |  |  | 
24 | CC1=C(C(=O)OCC(C)C)C(c2ccc(OCc3ccccc3)cc2)C2=C(CCCC2=O)N1 (centres unmarked) [ST017342, 2-methylpropyl 2-methyl-5-oxo-4-[4-(phenylmethoxy)phenyl]-1,4,6,7,8-pentahydroquinoline-3-carboxylate] | 93.5% | 28.8% |  |  | 
25 | Cc1cc(=O)cc(C)n1NC(N)=S [ST002431, 1-[(aminothioxomethyl)amino]-2,6-dimethylhydropyridin-4-one] |  |  |  |  | activity at 5 µM (Aβ1-42; [3]): 97.6%; activity at 5 µM (Aβ1-40; Table 3): 16.9%
26 | CCN(CC)c1ccc(C2C(C(=O)OC)=C(C)NC3=C2C(=O)CC(c2ccccc2)C3)cc1 (centres unmarked) [ST013129, methyl 4-[4-(diethylamino)phenyl]-2-methyl-5-oxo-7-phenyl-1,4,6,7,8-pentahydroquinoline-3-carboxylate] | 90.6% | 64.3% |  |  | 
27 | COc1ccc(C2CC(=O)C3=C(C2)NC(C)=C(C(=O)OC(C)C)C3c2ccc(F)cc2)cc1 (centres unmarked) [ST017066, methylethyl 4-(4-fluorophenyl)-7-(4-methoxyphenyl)-2-methyl-5-oxo-1,4,6,7,8-pentahydroquinoline-3-carboxylate] | 57.4% | 24.9% |  |  | 
28 | C=CCOC(=O)C1=C(C)NC2=C(C(=O)CCC2)C1c1ccc(OC)c(OC)c1OC (centres unmarked) [ST014969, prop-2-enyl 2-methyl-5-oxo-4-(2,3,4-trimethoxyphenyl)-1,4,6,7,8-pentahydroquinoline-3-carboxylate] | 83.3% | 39.7% |  |  | 
29 | COc1ccc(COC(=O)C2=C(C)NC3=C(C(=O)CCC3)C2c2ccc(C(F)(F)F)cc2)cc1 (centres unmarked) [ST052362, (4-methoxyphenyl)methyl 2-methyl-5-oxo-4-[4-(trifluoromethyl)phenyl]-1,4,6,7,8-pentahydroquinoline-3-carboxylate] | 0% | 7.11% |  |  | 
30 | COc1cc(Br)ccc1/C=c1\sc2n(c1=O)C(N)=C(C#N)C(c1ccc(Br)cc1OC)C=2C#N (centres unmarked) [RI_94] |  |  | 81.2 % of control | 73.2 % of control | 
31 | CC1=C(C(=O)OCCc2ccccc2)C(c2ccccc2Cl)C2=C(CC(C)(C)CC2=O)N1 (centres unmarked) [ST015085, 2-phenylethyl 4-(2-chlorophenyl)-2,7,7-trimethyl-5-oxo-1,4,6,7,8-pentahydroquinoline-3-carboxylate] | 72.9% | 69.9% |  |  | 
